Laboratory results reported in US20190343908A1, “Therapeutic Combination for the Treatment of Cancer” (Nerium Biotechnology Inc., priority 2011, published 2019).

Legend:
HT55 (colorectal cancer) = assay: Methyl-Tetrazolium viability assay, HT55; type: cell-based, human; parameters: key: absorbance (optical density) at 570 nm, second wavelength subtracted
Description: (§1) Three different viability assays were chosen to complement each other and yielded results dependent on concentration and cell line: the Methyl Tetrazolium dye assay, the Sulforhodamine B fluorescent dye assay, and the Crystal Violet dye assay.
(§2) The Methyl-Tetrazolium dye assay measures the activity of enzymes in mitochondria. The dye precursor is taken up by cells, where it undergoes reduction to the purple formazan. It measures only the mitochondrial activity and, thus, it is not always a reliable indication of whether the cells themselves are alive or dead, since even a recently dead cell has […] enzyme activity in mitochondria. Intracellular glucose concentration, pH, and time before assay all affect the measurements.
(§3) The Methyl Tetrazolium, Sulforhodamine B, and Crystal Violet assays were used to assess cell viabilities. The incubation times were 24 hours, 48 hours, and 72 hours. The Nerium oleander extract Anvirzel™ (a hot water extract of oleander obtained from Salud Integral, Honduras) was tested in concentrations ranging from 0.01 ng/mL to 10 ng/mL.
(§4) Cells were detached by trypsinization (Trypsin-0.25% EDTA, Invitrogen, 25200-072) during the logarithmic phase of culture growth and plated in 96-well plates (18.000 cells/well) (Corning, Costar 359) in a final volume of 200 μl of medium per well. […] The absorbance was measured after 24 hours, 48 hours, and 72 hours of incubation.
(§5) For the Methyl-Tetrazolium assay, the dye (Sigma, M2128; 5 mg/mL, diluted in phosphate-buffered saline) was added to each well and plates were incubated for 3 hours at 37° C. After the end of the incubation period, the medium was discarded and the cells were rinsed with phosphate-buffered saline. Finally, the formazan crystals were dissolved in dimethylsulphoxide (Sigma, D4540).
(§6) The optical density of each plate was measured on a μQuant spectrophotometer and the data were analyzed with Gen5 software (μQuant Biomolecular Spectrophotometer MQX200 and Gen5™ Microplate Data Collection & Analysis software, BioTek® Instruments. Inc, April 2008). Absorbance was measured at 570 nm for all assays and a second wavelength was measured in order to subtract noise. For the Methyl-Tetrazolium assay this second wavelength was 630 nm and for the Sulforhodamine B and Crystal Violet assays it was 690 nm.

[1] = test system: CALU-1 (non-small cell lung carcinoma); assay: Methyl-Tetrazolium viability assay, CALU-1; type: cell-based, human
Description: as §1, §2, §3, §4, §5, §6

N.N.[Cl][Pt][Cl] [cisplatin]
MTT Average (HT55 (colorectal cancer); HT55, Run 1, 24 h, 0.1 μg/ml CDDP): 0.096
MTT Average (HT55 (colorectal cancer); HT55, Run 1, 24 h, 1 μg/ml CDDP): 0.02
MTT Average (HT55 (colorectal cancer); HT55, Run 1, 24 h, 10 μg/ml CDDP): 0.054
MTT Average (HT55 (colorectal cancer); HT55, Run 1, 24 h, 100 μg/ml CDDP): 0.019
MTT Average (HT55 (colorectal cancer); HT55, Run 1, 48 h, 0.1 μg/ml CDDP): 0.177
MTT Average (HT55 (colorectal cancer); HT55, Run 1, 48 h, 1 μg/ml CDDP): 0.015
MTT Average (HT55 (colorectal cancer); HT55, Run 1, 48 h, 10 μg/ml CDDP): 0.03
MTT Average (HT55 (colorectal cancer); HT55, Run 1, 48 h, 100 μg/ml CDDP): 0.012
MTT Average (HT55 (colorectal cancer); HT55, Run 1, 72 h, 0.1 μg/ml CDDP): 0.315
MTT Average (HT55 (colorectal cancer); HT55, Run 1, 72 h, 1 μg/ml CDDP): 0.025
MTT Average (HT55 (colorectal cancer); HT55, Run 1, 72 h, 10 μg/ml CDDP): 0.026
MTT Average (HT55 (colorectal cancer); HT55, Run 1, 72 h, 100 μg/ml CDDP): 0.017
MTT Average (HT55 (colorectal cancer); HT55 Run 2, 24 h, 0.1 μg/ml CDDP): 0.215
MTT Average (HT55 (colorectal cancer); HT55 Run 2, 24 h, 1 μg/ml CDDP): 0.023
MTT Average (HT55 (colorectal cancer); HT55 Run 2, 24 h, 10 μg/ml CDDP): 0.053
MTT Average (HT55 (colorectal cancer); HT55 Run 2, 24 h, 100 μg/ml CDDP): 0.018
MTT Average (HT55 (colorectal cancer); HT55 Run 2, 48 h, 0.1 μg/ml CDDP): 0.381
MTT Average (HT55 (colorectal cancer); HT55 Run 2, 48 h, 1 μg/ml CDDP): 0.028
MTT Average (HT55 (colorectal cancer); HT55 Run 2, 48 h, 10 μg/ml CDDP): 0.031
MTT Average (HT55 (colorectal cancer); HT55 Run 2, 48 h, 100 μg/ml CDDP): 0.025
MTT Average (HT55 (colorectal cancer); HT55 Run 2, 72 h, 0.1 μg/ml CDDP): 0.488
MTT Average (HT55 (colorectal cancer); HT55 Run 2, 72 h, 1 μg/ml CDDP): 0.032
MTT Average (HT55 (colorectal cancer); HT55 Run 2, 72 h, 10 μg/ml CDDP): 0.028
MTT Average (HT55 (colorectal cancer); HT55 Run 2, 72 h, 100 μg/ml CDDP): 0.021
MTT Average (HT55 (colorectal cancer); HT55 Run 3, 24 h, 0.1 μg/ml CDDP): 0.205
MTT Average (HT55 (colorectal cancer); HT55 Run 3, 24 h, 1 μg/ml CDDP): 0.035
MTT Average (HT55 (colorectal cancer); HT55 Run 3, 24 h, 10 μg/ml CDDP): 0.206
MTT Average (HT55 (colorectal cancer); HT55 Run 3, 24 h, 100 μg/ml CDDP): 0.028
MTT Average (HT55 (colorectal cancer); HT55 Run 3, 48 h, 0.1 μg/ml CDDP): 0.331
MTT Average (HT55 (colorectal cancer); HT55 Run 3, 48 h, 1 μg/ml CDDP): 0.04
MTT Average (HT55 (colorectal cancer); HT55 Run 3, 48 h, 10 μg/ml CDDP): 0.361
MTT Average (HT55 (colorectal cancer); HT55 Run 3, 48 h, 100 μg/ml CDDP): 0.038
MTT Average (HT55 (colorectal cancer); HT55 Run 3, 72 h, 0.1 μg/ml CDDP): 0.359
MTT Average (HT55 (colorectal cancer); HT55 Run 3, 72 h, 1 μg/ml CDDP): 0.032
MTT Average (HT55 (colorectal cancer); HT55 Run 3, 72 h, 10 μg/ml CDDP): 0.353
MTT Average (HT55 (colorectal cancer); HT55 Run 3, 72 h, 100 μg/ml CDDP): 0.031
Average MTT 24 h ([1]; CALU-1 Run 1, 0.1 μg/ml CDDP): 0.178
Average MTT 48 h ([1]; CALU-1 Run 1, 0.1 μg/ml CDDP): 0.272
Average MTT 72 h ([1]; CALU-1 Run 1, 0.1 μg/ml CDDP): 0.272
Average MTT 24 h ([1]; CALU-1 Run 1, 1 μg/ml CDDP): 0.024
Average MTT 48 h ([1]; CALU-1 Run 1, 1 μg/ml CDDP): 0.024
Average MTT 72 h ([1]; CALU-1 Run 1, 1 μg/ml CDDP): 0.032
Average MTT 24 h ([1]; CALU-1 Run 1, 10 μg/ml CDDP): 0.043
Average MTT 48 h ([1]; CALU-1 Run 1, 10 μg/ml CDDP): 0.031
Average MTT 72 h ([1]; CALU-1 Run 1, 10 μg/ml CDDP): 0.024
Average MTT 24 h ([1]; CALU-1 Run 1, 100 μg/ml CDDP): 0.033
Average MTT 48 h ([1]; CALU-1 Run 1, 100 μg/ml CDDP): 0.033
Average MTT 72 h ([1]; CALU-1 Run 1, 100 μg/ml CDDP): 0.019
Average MTT 24 h ([1]; CALU-1 Run 2, 0.1 μg/ml CDDP): 0.244
Average MTT 48 h ([1]; CALU-1 Run 2, 0.1 μg/ml CDDP): 0.322
Average MTT 72 h ([1]; CALU-1 Run 2, 0.1 μg/ml CDDP): 0.29
Average MTT 24 h ([1]; CALU-1 Run 2, 1 μg/ml CDDP): 0.055
Average MTT 48 h ([1]; CALU-1 Run 2, 1 μg/ml CDDP): 0.024
Average MTT 72 h ([1]; CALU-1 Run 2, 1 μg/ml CDDP): 0.021
Average MTT 24 h ([1]; CALU-1 Run 2, 10 μg/ml CDDP): 0.056
Average MTT 48 h ([1]; CALU-1 Run 2, 10 μg/ml CDDP): 0.019
Average MTT 72 h ([1]; CALU-1 Run 2, 10 μg/ml CDDP): 0.015
Average MTT 24 h ([1]; CALU-1 Run 2, 100 μg/ml CDDP): 0.035
Average MTT 48 h ([1]; CALU-1 Run 2, 100 μg/ml CDDP): 0.016
Average MTT 72 h ([1]; CALU-1 Run 2, 100 μg/ml CDDP): 0.018
Average MTT 24 h ([1]; CALU-1 Run 3, 0.1 μg/ml CDDP, 24 h): 0.178
Average MTT 48 h ([1]; CALU-1 Run 3, 0.1 μg/ml CDDP, 48 h): 0.281
Average MTT 72 h ([1]; CALU-1 Run 3, 0.1 μg/ml CDDP, 72 h): 0.295
Average MTT 24 h ([1]; CALU-1 Run 3, 1 μg/ml CDDP, 24 h): 0.029
Average MTT 48 h ([1]; CALU-1 Run 3, 1 μg/ml CDDP, 48 h): 0.033
Average MTT 72 h ([1]; CALU-1 Run 3, 1 μg/ml CDDP, 72 h): 0.031
Average MTT 24 h ([1]; CALU-1 Run 3, 10 μg/ml CDDP, 24 h): 0.057
Average MTT 48 h ([1]; CALU-1 Run 3, 10 μg/ml CDDP, 48 h): 0.025
Average MTT 72 h ([1]; CALU-1 Run 3, 10 μg/ml CDDP, 72 h): 0.022
Average MTT 24 h ([1]; CALU-1 Run 3, 100 μg/ml CDDP, 24 h): 0.028
Average MTT 48 h ([1]; CALU-1 Run 3, 100 μg/ml CDDP, 48 h): 0.026
Average MTT 72 h ([1]; CALU-1 Run 3, 100 μg/ml CDDP, 72 h): 0.002
